The values that follow come from patent publication US4749683A, “Inhibition of gastric acid secretion with alpha-transforming growth factor” (President and Fellows of Harvard College, priority 1986, dated 1988).

The assay has as its system guinea pig gastric mucosa. As to the kind of experiment: Histamine-induced gastric acid secretion of isolated guinea pig gastric mucosa in Ussing chambers, pH stat method. It is filed as cell-based, guinea pigs. As to conditions: for Ratio of pre- and post histamine treatment acid secretion (mean SEM): relative to 30 minute period prior to histamine. The procedure:
Unfasted female guinea pigs (205-330 g) were killed by cervical dislocation and the stomachs were removed. The antrum was discarded and the stomach was rinsed clean with several washes of mammalian Ringer's solution at 37° C. The stomach was hemisected along the greater and lesser curvatures and the mucosa was separated from the seromuscularis with a pair of fine forceps. Mucosae from both sides were stretched and separately mounted in Lucite Ussing chambers (diameter 1.6 cm) and the assembled chambers were connected to water jacketted gas-lift incubators. The nutrient (submucosal) surface was bathed in 15 ml of a solution containing: 122 mM NaCl, 25.0 mM NaHCO3, 5.0 mM KCl, […] MgSO4, 2.0 mM CaCl2, 1.0 mM KH2 PO4, 20.0 mM glucose, and 100 ug/ml gentamycin sulphate (Garamycin). The solution was gassed with 95% O2 -5% CO2 bubbled through distilled water which maintained pH at 7.45-7.55. The luminal (mucosal) surface was bathed in 15 ml unbuffered saline (150 mM NaCl) which was gassed with 100% O2 passed through 500 mM NaOH to remove CO2. Gastric acid secretion was measured by the pH stat method. pH was held at 4.5 with a pH stat coupled to an autoburette and acid secretion was determined by the amount of NaOH necessary to maintain pH in the luminal solution. All solutions were maintained at 37° C. with a heated water circulator. Tissues were initially allowed to stabilize in the chambers a minimum of 2 hours. Saline with or without alpha TGF (60 ng/ml final concentration) was then added to the nutrient bath and the basal rate of acid secretion was monitored for 30 minutes. Twenty-one paired sets of tissue specimens from the same animal were employed, one receiving alpha-TGF, the other serving as control. All tissues were then treated with histamine (10^-4 M) and acid secretion was measured for an additional 3 hours. When calculated in terms of absolute levels of acid secretion, differences between control and TGF-treated tissues were significant (p<0.05) at 120, 150, and 180 minutes.

“And” between values parts separate entries of the source, which are not always exact repeats. Identical values can stand only once.

Take alpha-transforming growth factor [TGF]: the “Ratio of pre- and post histamine treatment acid secretion (mean SEM)” value (shortened to “Ratio … (mean SEM)”) (0 min., alpha TGF 60 ng/ml) was found to be 1.00 ± 0.00; the “Ratio … (mean SEM)” value (30 min., alpha TGF 60 ng/ml) is 1.17 ± 0.04; the “Ratio … (mean SEM)” value (60 min. (one hour), alpha TGF 60 ng/ml) was 1.48 ± 0.11 and 1.49±0.11; the “Ratio … (mean SEM)” value (90 min., alpha TGF 60 ng/ml) is on record as 1.67 ± 0.12; the “Ratio … (mean SEM)” value (120 min. (two hours), alpha TGF 60 ng/ml) is on record as 1.68 ± 0.11; the “Ratio … (mean SEM)” value (150 min., alpha TGF 60 ng/ml) was determined as 1.73 ± 0.12. For the same substance, the “Ratio … (mean SEM)” value (180 min. (three hours), alpha TGF 60 ng/ml) turned out to be 1.81 ± 0.27. Also, the “Gastric acid secretion (mean ± SEM)” value (0 time, basal rate before histamine, alpha TGF 60 ng/ml in nutrient bath, n=21) amounted to 1.80 ± 0.21 uEq./cm^2 /hr; the “Gastric acid secretion (mean ± SEM)” value (30 min. after histamine 10^-4 M, alpha TGF 60 ng/ml) is 2.09 ± 0.24 uEq./cm^2 /hr; the “Gastric acid secretion (mean ± SEM)” value (60 min. after histamine 10^-4 M, alpha TGF 60 ng/ml) was 2.62 ± 0.35 uEq./cm^2 /hr; the “Gastric acid secretion (mean ± SEM)” value (90 min. after histamine 10^-4 M, alpha TGF 60 ng/ml) worked out at 2.97 ± 0.38 uEq./cm^2 /hr; the “Gastric acid secretion (mean ± SEM)” value (120 min. after histamine 10^-4 M, alpha TGF 60 ng/ml) stood at 2.97 ± 0.35 uEq./cm^2 /hr; the “Gastric acid secretion (mean ± SEM)” value (150 min. after histamine 10^-4 M, alpha TGF 60 ng/ml) is given as 3.04 ± 0.37 uEq./cm^2 /hr. In addition, the “Gastric acid secretion (mean ± SEM)” value (180 min. after histamine 10^-4 M, alpha TGF 60 ng/ml) is on record as 3.16 ± 0.68 uEq./cm^2 /hr. The “Effect on the basal rate of acid secretion” value (30 minutes before histamine, alpha TGF 60 ng/ml) is recorded as “no effect”.
